In patent US9278941B2, “Azole derivative and uses thereof” (Kureha Corporation, priority 2011, dated 2016):
Like-named read-outs stand apart in the source and are kept apart here.

Tests used:
[1] = test system: Alternaria alternata; test: Antifungal test for pathogens (PDA plate), A.m; format: cell-based; conditions: PDA plate medium
[2] = test system: Phaeosphaeria nodorum; test: Antifungal test for pathogens (PDA plate), P.n; format: cell-based; conditions: PDA plate medium
[3] = test system: Penicillium italicum; test: Antifungal test for pathogens (PDA plate), P.i; format: cell-based; conditions: PDA plate medium
[4] = test system: Sclerotinia sclerotiorum; test: Antifungal test for pathogens (PDA plate), S.s; format: cell-based; conditions: PDA plate medium
[5] = test system: Ustilago nuda; test: Antifungal test for pathogens (PDA plate), U.n; format: cell-based; conditions: PDA plate medium
[6] = test system: Rhizopus oryzae; test: Antifungal test for pathogens (PDA plate), R.o; format: cell-based; conditions: PDA plate medium
[7] = test system: Pyrenophora graminea; test: Antifungal test for pathogens (PDA plate), P.g; format: cell-based; conditions: PDA plate medium
[8] = test system: Gibberella fujikuroi; test: Antifungal test for pathogens (PDA plate), G.f; format: cell-based; conditions: PDA plate medium
[9] = test system: Cercospora beticola; test: Antifungal test for pathogens (PDA plate), C.b; format: cell-based; conditions: PDA plate medium
[10] = test system: Pyricularia oryzae; format: cell-based; conditions: PDA plate medium
[11] = test system: Fusarium graminearum; format: cell-based; conditions: PDA plate medium
[12] = test system: Botrytis cinerea; test: Antifungal test for pathogens (PDA plate), B.c; format: cell-based; conditions: PDA plate medium
[13] = test system: wheat leaf blight; test: Leaf blotch control effect on wheat, foliar spray treatment; conditions: wettable powder foliar spray 1,000 L/ha, thirty days after inoculation
Protocol: After blow drying the sprayed leaves, the plants were sprinkled and inoculated with wheat leaf blight. Thirty days after inoculation, the morbidity of the wheat to powdery mildew was evaluated according to the criteria shown in Table 3, and the preventative value was calculated using the following equation. When the average morbidity of the sprayed plot was higher than the average morbidity of the unsprayed plot, the preventative value was 0%. Preventative value (%)=(1−(average morbidity of the sprayed plot/average morbidity of the unsprayed plot))×100.

[14] = test system: Fusarium oxysporum; test: Antifungal test for pathogens (PDA plate), F.c; format: cell-based; conditions: PDA plate medium
[15] = test system: Rhynchosporium secalis; test: Antifungal test for pathogens (PDA plate), R.sec; format: cell-based; conditions: PDA plate medium
[16] = test system: wheat brown rust; test: Brown rust control effect on wheat, seed treatment; format: in vivo; conditions: sixteen days after inoculation
Protocol: A pot test was performed to evaluate the brown rust controlling effect on wheat using seed treatment. Compound (1(−)) or Compound (1(+)) was dissolved in DMSO so the treatment amount was 20 g ai/100 kg seeds or 2 g ai/100 kg seeds, and the solution was smeared on wheat seeds in a vial, and eight wheat seeds were seeded in a 80 cm^2 pot. These were irrigated from below in a greenhouse. Fifteen days after seeding, the seedlings were inoculated with wheat brown rust and then kept for two days in a box. These were again irrigated from below in a greenhouse.

[17] = test system: Glomerella cingurata; test: Antifungal test for pathogens (PDA plate), G.c; format: cell-based; conditions: PDA plate medium
[18] = test system: Wheat leaf blight (Septoria tritici); test: Antifungal test against wheat leaf blight (PDA plate); conditions: 19 days at 25° C.
Protocol: Wheat leaf blight (Septoria tritici) cultured beforehand in a medium plate was punched out with a 4 mm-diameter cork borer, and inoculated in the plate media containing the agent. After inoculation, they were cultured for 19 days at 25° C., and the growth of the fungus was determined by the diameter of the growth. The growth rate of the fungus in the plate media containing the agent was compared to the growth rate of the fungus in the plate medium not containing the agent, and the filamentous fungi inhibition rate was determined using the following equation. In the equation, R is the filamentous fungi inhibition rate (%), dc is the diameter of the fungal growth in the untreated plate media, and dt is the diameter of the fungal growth in the treated plate media. R=100(dc−dt)/dc

[19] = test system: wheat; test: Phytotoxicity evaluation of growth inhibition of wheat seeds, seed treatment; format: in vivo; conditions: fifteen days after seeding, untreated 21 cm
Protocol: A pot test was used to perform a phytotoxicity evaluation of growth inhibition using a seed treatment. Compound (1(−)) or Compound (1(+)) was dissolved in DMSO so the treatment amount was 2 or 20 g ai/100 kg seeds, and the solution was smeared on wheat seeds in a vial, and eight wheat seeds were seeded in a 80 cm^2 pot. These were irrigated from below in a greenhouse. Fifteen days after seeding, the length of the wheat was evaluated.

[20] = test system: Gaeumannomyces graminis; test: Antifungal test for pathogens (PDA plate), G.g; format: cell-based; conditions: PDA plate medium
[21] = test system: Pseudocercoporella herpotrichoides; test: Antifungal test for pathogens (PDA plate), P.h; format: cell-based; conditions: PDA plate medium
[22] = test system: wheat leaf rust; test: Rust control effect on wheat, foliar spray treatment; format: in vivo; conditions: wettable powder foliar spray 1,000 L/ha, twelve days after inoculation
[23] = test system: powdery mildew; test: Powdery mildew control effect on wheat, foliar spray treatment; format: in vivo; conditions: wettable powder foliar spray 1,000 L/ha, seven days after inoculation
[24] = test system: Microdochium nivale; test: Antifungal test for pathogens (PDA plate), M.n; format: cell-based; conditions: PDA plate medium
[25] = test system: Botrytis cinerea; test: Gray mold disease control effect on cucumbers, foliar spray treatment; format: in vivo; conditions: cucumber gray mold, wettable powder foliar spray 1,000 L/ha, four days after inoculation
[26] = test system: Rhizoctonia solani; test: Antifungal test for pathogens (PDA plate), R.s; format: cell-based; conditions: PDA plate medium
[27] = test system: various pathogenic filamentous fungi other than wheat leaf blight; format: cell-based; conditions: 10 mg/L, PDA plate; all 13 fungi: wheat blight, barley stripe, wheat fusarium, barley loose smut, rice blast, rice sheath blight, rice bakanae, apple leaf spot, Botrytis cinerea, cucumber vine crack, citrus blue mold, sugar beet brown spot, barley cloud fungus

## COC(=O)[C@]1(C)CC[C@H](Cc2ccc(Cl)cc2)[C@@]1(O)Cn1cncn1 (relative stereo) [Compound (1(+)), (1,2-cis, 1,3-cis)-3-(4-chlorobenzyl)-2-hydroxy-1-methyl-2-(1H-1,2,4-triazole-1-ylmethyl)cyclopentanecarboxylic acid methyl ester]
[1]; Sample Conc. 1.25 mg/L
  Antifungal Index of Each Strain A.m: 1 (<60%)
[1]; Sample Conc. 2.5 mg/L
  Antifungal Index of Each Strain A.m: 2 (70%-60%)
[1]; Sample Conc. 5 mg/L
  Antifungal Index of Each Strain A.m: 3 (80%-70%)
[2]; Sample Conc. 1.25 mg/L
  Antifungal Index of Each Strain P.n: 2 (70%-60%)
[2]; Sample Conc. 2.5 mg/L
  Antifungal Index of Each Strain P.n: 2 (70%-60%)
[2]; Sample Conc. 5 mg/L
  Antifungal Index of Each Strain P.n: 2 (70%-60%)
[3]; Sample Conc. 0.08 mg/L
  Antifungal Index of Each Strain P.i: 1 (<60%)
[3]; Sample Conc. 0.16 mg/L
  Antifungal Index of Each Strain P.i: 1 (<60%)
[3]; Sample Conc. 0.31 mg/L
  Antifungal Index of Each Strain P.i: 1 (<60%)
[3]; Sample Conc. 0.63 mg/L
  Antifungal Index of Each Strain P.i: 2 (70%-60%)
[4]; Sample Conc. 1.25 mg/L
  Antifungal Index of Each Strain S.s: 1 (<60%)
[4]; Sample Conc. 2.5 mg/L
  Antifungal Index of Each Strain S.s: 1 (<60%)
[4]; Sample Conc. 5 mg/L
  Antifungal Index of Each Strain S.s: 1 (<60%)
[5]; Sample Conc. 1.25 mg/L
  Antifungal Index of Each Strain U.n: 2 (70%-60%)
[5]; Sample Conc. 2.5 mg/L
  Antifungal Index of Each Strain U.n: 3 (80%-70%)
[5]; Sample Conc. 5 mg/L
  Antifungal Index of Each Strain U.n: 4 (90%-80%)
[6]; Sample Conc. 1.25 mg/L
  Antifungal Index of Each Strain R.o: 1 (<60%)
[6]; Sample Conc. 2.5 mg/L
  Antifungal Index of Each Strain R.o: 1 (<60%)
[6]; Sample Conc. 5 mg/L
  Antifungal Index of Each Strain R.o: 1 (<60%)
[7]; Sample Conc. 0.08 mg/L
  Antifungal Index of Each Strain P.g: 1 (<60%)
[7]; Sample Conc. 0.16 mg/L
  Antifungal Index of Each Strain P.g: 1 (<60%)
[7]; Sample Conc. 0.31 mg/L
  Antifungal Index of Each Strain P.g: 4 (90%-80%)
[7]; Sample Conc. 0.63 mg/L
  Antifungal Index of Each Strain P.g: 5 (>90%)
[8]; Sample Conc. 1.25 mg/L
  Antifungal Index of Each Strain G.f: 1 (<60%)
[8]; Sample Conc. 2.5 mg/L
  Antifungal Index of Each Strain G.f: 2 (70%-60%)
[8]; Sample Conc. 5 mg/L
  Antifungal Index of Each Strain G.f: 3 (80%-70%)
[9]; Sample Conc. 0.08 mg/L
  Antifungal Index of Each Strain C.b: 1 (<60%)
[9]; Sample Conc. 0.16 mg/L
  Antifungal Index of Each Strain C.b: 2 (70%-60%)
[9]; Sample Conc. 0.31 mg/L
  Antifungal Index of Each Strain C.b: 3 (80%-70%)
[9]; Sample Conc. 0.63 mg/L
  Antifungal Index of Each Strain C.b: 4 (90%-80%)
[10]; Sample Conc. 1.25 mg/L
  Antifungal Index of Each Strain P.o: 1 (<60%)
[10]; Sample Conc. 2.5 mg/L
  Antifungal Index of Each Strain P.o: 2 (70%-60%)
[10]; Sample Conc. 5 mg/L
  Antifungal Index of Each Strain P.o: 5 (>90%)
[11]; Sample Conc. 1.25 mg/L
  Antifungal Index of Each Strain F.g: 1 (<60%)
[11]; Sample Conc. 2.5 mg/L
  Antifungal Index of Each Strain F.g: 1 (<60%)
[11]; Sample Conc. 5 mg/L
  Antifungal Index of Each Strain F.g: 2 (70%-60%)
[12]; Sample Conc. 1.25 mg/L
  Antifungal Index of Each Strain B.c: 1 (<60%)
[12]; Sample Conc. 2.5 mg/L
  Antifungal Index of Each Strain B.c: 1 (<60%)
[12]; Sample Conc. 5 mg/L
  Antifungal Index of Each Strain B.c: 4 (90%-80%)
[13]; sample conc. 12.5 mg/L
  Preventative Value (%): 67.5%
[13]; sample conc. 50 mg/L
  Preventative Value (%): 77.5%
[14]; Sample Conc. 1.25 mg/L
  Antifungal Index of Each Strain F.c: 2 (70%-60%)
[14]; Sample Conc. 2.5 mg/L
  Antifungal Index of Each Strain F.c: 3 (80%-70%)
[14]; Sample Conc. 5 mg/L
  Antifungal Index of Each Strain F.c: 4 (90%-80%)
[15]; Sample Conc. 0.08 mg/L
  Antifungal Index of Each Strain R.sec: 3 (80%-70%)
[15]; Sample Conc. 0.16 mg/L
  Antifungal Index of Each Strain R.sec: 5 (>90%)
[15]; Sample Conc. 0.31 mg/L
  Antifungal Index of Each Strain R.sec: 5 (>90%)
[15]; Sample Conc. 0.63 mg/L
  Antifungal Index of Each Strain R.sec: 5 (>90%)
[16]; seed treatment 2 g ai/100 kg seeds
  Preventative Value (%): 0%
[16]; seed treatment 20 g ai/100 kg seeds
  Preventative Value (%): 5%
[17]; Sample Conc. 1.25 mg/L
  Antifungal Index of Each Strain G.c: 1 (<60%)
[17]; Sample Conc. 2.5 mg/L
  Antifungal Index of Each Strain G.c: 1 (<60%)
[17]; Sample Conc. 5 mg/L
  Antifungal Index of Each Strain G.c: 2 (70%-60%)
[18]; sample conc. 0.31 mg/L
  Antifungal Index: 3 (80%-70%)
[18]; sample conc. 0.63 mg/L
  Antifungal Index: 3 (80%-70%)
[18]; sample conc. 1.25 mg/L
  Antifungal Index: 5 (>90%)
[19]; wheat seed treatment 2 g ai/100 kg seeds
  Average Plant Length (cm): 22 cm
[19]; wheat seed treatment 20 g ai/100 kg seeds
  Average Plant Length (cm): 14 cm
[20]; Sample Conc. 1.25 mg/L
  Antifungal Index of Each Strain G.g: 1 (<60%)
[20]; Sample Conc. 2.5 mg/L
  Antifungal Index of Each Strain G.g: 2 (70%-60%)
[20]; Sample Conc. 5 mg/L
  Antifungal Index of Each Strain G.g: 4 (90%-80%)
[21]; Sample Conc. 1.25 mg/L
  Antifungal Index of Each Strain P.h: 1 (<60%)
[21]; Sample Conc. 2.5 mg/L
  Antifungal Index of Each Strain P.h: 1 (<60%)
[21]; Sample Conc. 5 mg/L
  Antifungal Index of Each Strain P.h: 1 (<60%)
[22]; sample conc. 0.8 mg/L
  Preventative Value (%): 0%
[22]; sample conc. 3.1 mg/L
  Preventative Value (%): 0%
[23]; sample conc. 12.5 mg/L
  Preventative Value (%): 24%
[23]; sample conc. 50.0 mg/L
  Preventative Value (%): 94%
[24]; Sample Conc. 1.25 mg/L
  Antifungal Index of Each Strain M.n: 1 (<60%)
[24]; Sample Conc. 2.5 mg/L
  Antifungal Index of Each Strain M.n: 1 (<60%)
[24]; Sample Conc. 5 mg/L
  Antifungal Index of Each Strain M.n: 1 (<60%)
[25]; sample conc. 12.5 mg/L
  Preventative Value (%): 0%
[25]; sample conc. 50.0 mg/L
  Preventative Value (%): 17.6%
[26]; Sample Conc. 1.25 mg/L
  Antifungal Index of Each Strain R.s: 2 (70%-60%)
[26]; Sample Conc. 2.5 mg/L
  Antifungal Index of Each Strain R.s: 2 (70%-60%)
[26]; Sample Conc. 5 mg/L
  Antifungal Index of Each Strain R.s: 4 (90%-80%)
[27]
  filamentous fungi inhibition rate R: ≥ 80%
